According to ChEMBL document CHEMBL5038633 (J Med Chem, 2022):
Calls of active or inactive are those of the source. The calls are words filed in the database; no cut-off is given here. Where a SMILES comes first, the peptide text is derived from it. Bridges are numbered along the chain shown (N, C = ends). [ ]: non-standard residue; d: D form. Trp(5-Br) = N[C@@H](Cc1c[nH]c2ccc(Br)cc12)C(=O)O; Abu(4,4,4-F3) = N[C@@H](CC(F)(F)F)C(=O)O; Phe(3-Cl) = N[C@@H](Cc1cccc(Cl)c1)C(=O)O; Phe(4-Cl) = N[C@@H](Cc1ccc(Cl)cc1)C(=O)O; Chg = N[C@H](C(=O)O)C1CCCCC1

Legend:
[1] = biological target: Voltage-gated inwardly rectifying potassium channel KCNH2 (Homo sapiens, UniProt Q12809); test: Inhibition of human ERG by PatchXpress assay; type: toxicity
Sequence of Voltage-gated inwardly rectifying potassium channel KCNH2 (Q12809 whole entry): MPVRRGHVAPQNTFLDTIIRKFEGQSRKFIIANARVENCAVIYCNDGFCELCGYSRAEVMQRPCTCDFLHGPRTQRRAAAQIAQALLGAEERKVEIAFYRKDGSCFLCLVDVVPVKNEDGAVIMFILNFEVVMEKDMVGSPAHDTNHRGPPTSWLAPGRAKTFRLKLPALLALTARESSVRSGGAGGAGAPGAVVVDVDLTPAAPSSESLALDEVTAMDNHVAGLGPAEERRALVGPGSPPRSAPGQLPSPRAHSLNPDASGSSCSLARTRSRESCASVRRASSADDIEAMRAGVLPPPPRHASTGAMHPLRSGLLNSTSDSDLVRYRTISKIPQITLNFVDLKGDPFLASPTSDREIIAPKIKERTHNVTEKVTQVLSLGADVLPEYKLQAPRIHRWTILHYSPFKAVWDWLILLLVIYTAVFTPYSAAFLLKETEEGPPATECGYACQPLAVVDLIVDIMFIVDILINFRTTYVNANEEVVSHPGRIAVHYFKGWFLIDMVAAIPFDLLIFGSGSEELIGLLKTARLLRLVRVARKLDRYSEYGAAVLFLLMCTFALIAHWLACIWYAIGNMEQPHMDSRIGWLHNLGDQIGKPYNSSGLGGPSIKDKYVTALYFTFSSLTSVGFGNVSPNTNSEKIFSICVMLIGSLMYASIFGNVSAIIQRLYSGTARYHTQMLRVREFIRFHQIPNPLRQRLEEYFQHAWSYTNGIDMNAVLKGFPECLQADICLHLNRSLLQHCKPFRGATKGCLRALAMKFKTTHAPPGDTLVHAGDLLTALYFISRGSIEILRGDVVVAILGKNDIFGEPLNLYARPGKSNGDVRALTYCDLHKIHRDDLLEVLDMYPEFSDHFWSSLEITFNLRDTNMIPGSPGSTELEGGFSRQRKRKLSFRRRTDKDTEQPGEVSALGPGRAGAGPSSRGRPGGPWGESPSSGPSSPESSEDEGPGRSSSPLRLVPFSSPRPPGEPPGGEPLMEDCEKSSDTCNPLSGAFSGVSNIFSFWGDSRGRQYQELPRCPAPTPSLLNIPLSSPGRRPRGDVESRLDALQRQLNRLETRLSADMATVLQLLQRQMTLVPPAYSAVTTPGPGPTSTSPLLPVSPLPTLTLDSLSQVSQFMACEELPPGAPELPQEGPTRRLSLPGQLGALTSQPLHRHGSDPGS

[2] = biological target: Sodium channel protein type 9 subunit alpha (Rattus norvegicus, UniProt O08562); test: Inhibition of rat Nav1.7 stably expressed in cells with train pulses to -20 mV at 0.1 Hz and holding potential of -90 mV by whole-cell QPatch HT assay; type: cell-based
[3] = system: Mast cell; test: Effect on mast cell degranulation in Wistar Han rat peritoneal lavage mast cells assessed as increase in maximum histamine level in plasma at upto 1 mg/kg, iv administered as bolus dose measured up to 24 hrs by LC/MS/MS analysis; type: functional, organism-based; settings: dose mg/kg <=1, time hrs <=24
[4] = system: Rattus norvegicus; test: Antinociceptive activity against Sprague-Dawley rat model of thermal stimuli induced nociception assessed as increase in tail withdrawal latency administered subcutaneously as single dose measured up to 24 hrs by tail flick test; type: functional, organism-based; settings: time hrs <=24
[5] = Inhibition of mast cell degranulation in Wistar Han rat peritoneal lavage mast cells assessed as inhibition histamine release by measuring lowest concentration at which histamine release observed measured after 30 mins; type: functional; settings: 0.5 h
[6] = biological target: T1, Sodium channel protein type 9 subunit alpha (Homo sapiens, UniProt Q15858); test: Inhibition of human Nav1.7 stably expressed in cells with train pulses to -20 mV at 0.1 Hz and holding potential of -95 mV by whole-cell QPatch HT assay; type: cell-based
T1 sequence (Q15858 whole entry): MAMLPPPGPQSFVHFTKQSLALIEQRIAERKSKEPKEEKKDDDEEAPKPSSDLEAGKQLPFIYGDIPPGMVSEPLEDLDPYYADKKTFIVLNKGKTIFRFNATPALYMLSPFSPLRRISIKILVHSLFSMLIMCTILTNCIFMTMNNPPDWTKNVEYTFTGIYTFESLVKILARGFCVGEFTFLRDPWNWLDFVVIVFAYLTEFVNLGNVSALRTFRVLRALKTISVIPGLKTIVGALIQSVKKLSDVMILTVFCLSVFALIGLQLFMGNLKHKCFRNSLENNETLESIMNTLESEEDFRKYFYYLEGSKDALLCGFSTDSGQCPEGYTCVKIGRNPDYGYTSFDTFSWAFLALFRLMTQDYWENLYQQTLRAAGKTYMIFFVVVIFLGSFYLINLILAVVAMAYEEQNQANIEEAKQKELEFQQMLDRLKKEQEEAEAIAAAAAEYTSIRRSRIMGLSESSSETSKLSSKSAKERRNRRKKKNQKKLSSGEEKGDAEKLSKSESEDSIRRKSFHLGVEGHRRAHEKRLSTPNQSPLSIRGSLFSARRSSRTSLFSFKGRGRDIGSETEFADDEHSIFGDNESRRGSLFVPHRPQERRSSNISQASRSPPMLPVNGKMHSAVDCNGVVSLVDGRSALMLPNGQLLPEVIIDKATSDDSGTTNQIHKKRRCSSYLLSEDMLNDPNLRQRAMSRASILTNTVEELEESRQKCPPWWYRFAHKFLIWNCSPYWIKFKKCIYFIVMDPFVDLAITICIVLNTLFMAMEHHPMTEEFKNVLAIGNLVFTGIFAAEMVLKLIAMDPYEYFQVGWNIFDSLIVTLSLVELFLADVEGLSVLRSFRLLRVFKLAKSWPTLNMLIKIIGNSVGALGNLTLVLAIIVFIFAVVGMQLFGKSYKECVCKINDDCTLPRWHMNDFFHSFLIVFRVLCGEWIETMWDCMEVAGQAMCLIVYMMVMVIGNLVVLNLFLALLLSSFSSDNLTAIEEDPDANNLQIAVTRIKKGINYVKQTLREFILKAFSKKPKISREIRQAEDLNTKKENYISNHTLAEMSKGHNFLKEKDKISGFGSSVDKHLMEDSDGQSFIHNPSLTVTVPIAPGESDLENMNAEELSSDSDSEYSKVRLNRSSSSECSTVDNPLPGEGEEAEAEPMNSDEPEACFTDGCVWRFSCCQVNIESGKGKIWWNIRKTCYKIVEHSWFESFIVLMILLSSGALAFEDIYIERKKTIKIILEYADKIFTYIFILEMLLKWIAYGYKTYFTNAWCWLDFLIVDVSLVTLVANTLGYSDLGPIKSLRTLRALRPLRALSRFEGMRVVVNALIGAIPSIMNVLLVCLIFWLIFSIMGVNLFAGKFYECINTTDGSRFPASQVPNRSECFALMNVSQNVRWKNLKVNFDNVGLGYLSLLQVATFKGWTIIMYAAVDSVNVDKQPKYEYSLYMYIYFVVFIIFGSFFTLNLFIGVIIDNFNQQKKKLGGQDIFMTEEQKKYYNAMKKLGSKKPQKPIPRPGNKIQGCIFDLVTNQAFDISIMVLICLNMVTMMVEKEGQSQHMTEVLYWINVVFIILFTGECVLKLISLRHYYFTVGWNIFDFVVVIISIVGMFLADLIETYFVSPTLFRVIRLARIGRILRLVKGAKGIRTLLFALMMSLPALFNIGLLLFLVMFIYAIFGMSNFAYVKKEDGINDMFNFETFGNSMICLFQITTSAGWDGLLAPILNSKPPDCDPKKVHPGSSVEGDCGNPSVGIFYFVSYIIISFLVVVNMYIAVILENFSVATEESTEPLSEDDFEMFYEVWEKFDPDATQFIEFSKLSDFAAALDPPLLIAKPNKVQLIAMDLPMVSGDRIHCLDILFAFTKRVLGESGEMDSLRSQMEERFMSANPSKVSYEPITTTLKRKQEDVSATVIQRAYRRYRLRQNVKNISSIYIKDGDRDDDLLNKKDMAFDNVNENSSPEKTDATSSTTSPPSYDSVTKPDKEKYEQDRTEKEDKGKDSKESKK

[7] = biological target: Sodium channel protein type 2 subunit alpha (Homo sapiens, UniProt Q99250); test: Inhibition of human Nav1.2 stably expressed in cells with train pulses to -20 mV at 0.1 Hz and holding potential of -95 mV by Qube-automated patch clamp assay; type: cell-based
[8] = biological target: Sodium channel protein type 4 subunit alpha (Homo sapiens, UniProt P35499); test: Inhibition of human Nav1.4 stably expressed in cells with train pulses to -20 mV at 0.1 Hz and holding potential of -95 mV by whole-cell Qube-automated patch clamp assay; type: cell-based
Sequence of Sodium channel protein type 4 subunit alpha (P35499 whole entry): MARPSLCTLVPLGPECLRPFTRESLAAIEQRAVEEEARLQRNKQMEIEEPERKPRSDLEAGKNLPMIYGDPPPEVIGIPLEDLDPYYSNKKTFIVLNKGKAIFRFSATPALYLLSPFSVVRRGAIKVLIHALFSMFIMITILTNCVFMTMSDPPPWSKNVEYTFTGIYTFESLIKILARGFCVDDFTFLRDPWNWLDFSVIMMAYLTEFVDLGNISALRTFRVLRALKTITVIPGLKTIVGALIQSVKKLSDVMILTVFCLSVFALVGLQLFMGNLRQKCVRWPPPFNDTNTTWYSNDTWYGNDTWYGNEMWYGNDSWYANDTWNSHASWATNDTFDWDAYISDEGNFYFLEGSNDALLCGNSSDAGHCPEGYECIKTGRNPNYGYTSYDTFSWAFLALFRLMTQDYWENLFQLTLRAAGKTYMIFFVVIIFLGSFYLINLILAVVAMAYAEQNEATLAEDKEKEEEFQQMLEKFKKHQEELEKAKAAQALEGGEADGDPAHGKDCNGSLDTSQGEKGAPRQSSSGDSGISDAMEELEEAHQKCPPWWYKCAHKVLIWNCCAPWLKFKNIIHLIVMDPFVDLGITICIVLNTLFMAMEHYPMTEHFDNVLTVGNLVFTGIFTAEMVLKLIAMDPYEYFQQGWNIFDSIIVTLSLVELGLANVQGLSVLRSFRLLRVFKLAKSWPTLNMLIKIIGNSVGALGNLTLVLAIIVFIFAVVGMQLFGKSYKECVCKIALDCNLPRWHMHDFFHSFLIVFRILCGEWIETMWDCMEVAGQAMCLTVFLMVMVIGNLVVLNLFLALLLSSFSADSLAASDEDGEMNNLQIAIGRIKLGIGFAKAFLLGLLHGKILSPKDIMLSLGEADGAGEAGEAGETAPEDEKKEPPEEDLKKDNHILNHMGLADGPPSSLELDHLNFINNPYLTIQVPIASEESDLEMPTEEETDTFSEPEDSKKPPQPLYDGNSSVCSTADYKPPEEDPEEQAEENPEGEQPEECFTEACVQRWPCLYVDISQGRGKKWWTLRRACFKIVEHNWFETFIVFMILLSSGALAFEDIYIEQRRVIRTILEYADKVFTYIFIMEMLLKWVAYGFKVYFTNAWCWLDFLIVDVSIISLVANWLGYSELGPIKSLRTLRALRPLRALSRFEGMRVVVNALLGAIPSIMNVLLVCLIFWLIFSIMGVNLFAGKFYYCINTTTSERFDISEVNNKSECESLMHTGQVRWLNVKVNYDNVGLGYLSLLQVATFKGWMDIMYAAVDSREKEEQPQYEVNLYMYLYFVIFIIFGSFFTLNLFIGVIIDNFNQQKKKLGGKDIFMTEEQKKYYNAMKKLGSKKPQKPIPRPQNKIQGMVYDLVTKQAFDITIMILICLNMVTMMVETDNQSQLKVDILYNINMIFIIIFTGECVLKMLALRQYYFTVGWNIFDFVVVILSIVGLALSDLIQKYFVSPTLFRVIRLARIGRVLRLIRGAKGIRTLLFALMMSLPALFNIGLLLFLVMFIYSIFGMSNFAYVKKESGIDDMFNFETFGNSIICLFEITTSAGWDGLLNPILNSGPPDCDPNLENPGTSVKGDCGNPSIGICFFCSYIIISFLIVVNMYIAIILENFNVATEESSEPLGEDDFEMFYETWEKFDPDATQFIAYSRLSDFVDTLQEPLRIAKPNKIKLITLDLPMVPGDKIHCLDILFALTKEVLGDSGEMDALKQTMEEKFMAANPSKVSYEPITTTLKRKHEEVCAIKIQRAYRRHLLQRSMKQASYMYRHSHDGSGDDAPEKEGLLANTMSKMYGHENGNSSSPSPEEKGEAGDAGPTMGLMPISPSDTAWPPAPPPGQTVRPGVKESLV

[9] = Half life in Wistar Han rat at 0.3 mg/kg, iv measured upto 24 hrs by LC/MS/MS analysis; type: ADME, organism-based; settings: in vivo
[10] = biological target: Sodium channel protein type 8 subunit alpha (Homo sapiens, UniProt Q9UQD0); test: Inhibition of human Nav1.6 stably expressed in cells with train pulses to -20 mV at 0.1 Hz and holding potential of -85 mV by whole-cell Qube-automated patch clamp assay; type: cell-based
[11] = biological target: Voltage-dependent L-type calcium channel subunit alpha-1C (Homo sapiens, UniProt Q13936); test: Inhibition of human Cav1.2 stably expressed in HEK293 cells incubated for 30 mins in dark by Fluo-4 AM dye based FLIPR assay; type: cell-based
[12] = Ratio of IC50 for inhibition of rat Nav1.7 stably expressed in cells to EC50 for antinociceptive activity against Sprague-Dawley rat model of thermal stimuli induced nociception assessed as concentration required for maximal tail flick withdrawal latency; type: functional
[13] = system: Rattus norvegicus; test: Antinociceptive activity against Sprague-Dawley rat model of thermal stimuli induced nociception assessed as concentration required for maximal tail flick withdrawal latency administered subcutaneously as single dose measured up to 24 hrs by tail flick test; type: functional, organism-based
[14] = biological target: Sodium channel protein type 5 subunit alpha (Homo sapiens, UniProt Q14524); test: Inhibition of human Nav1.5 by PatchXpress assay; type: toxicity
[15] = biological target: T1, Sodium channel protein type 9 subunit alpha; test: Inhibition of human Nav1.7 stably expressed in cells with train pulses to -20 mV at 0.1 Hz and holding potential of -95 mV by Qube-automated patch clamp assay; type: cell-based
[16] = system: Mast cell; test: Effect on mast cell degranulation in Wistar Han rat peritoneal lavage mast cells assessed as fold increase in histamine level by measuring histamine Cmax in plasma at 0.3 mg/kg, iv administered as bolus dose measured up to 24 hrs by LC/MS/MS analysis relative to control; type: functional; settings: time hrs <=24

For CC(=O)N[C@H]1CSSC[C@@H]2NC(=O)[C@@H]3CSSC[C@@H](C(=O)N[C@@H](CCCCN)C(=O)N[C@@H](CCCCN)C(=O)N[C@@H](CCCCN)C(=O)N[C@@H](CC(C)C)C(=O)N[C@@H](Cc4c[nH]c5ccccc45)C(N)=O)NC(=O)[C@H](Cc4c[nH]c5ccccc45)NC(=O)[C@H](CC(C)C)NC(=O)[C@H](CCCCN)NC(=O)[C@H](CSSC[C@H](NC(=O)[C@@H]4CCCN4C(=O)[C@H](CCC(=O)O)NC(=O)[C@H](CC(C)C)NC(=O)[C@H](Cc4ccccc4)NC(=O)[C@H](CCCCN)NC(=O)[C@H](CCC(N)=O)NC1=O)C(=O)N[C@@H](CC(=O)O)C(=O)N[C@@H](CO)C(=O)N[C@@H](CCC(=O)O)C(=O)N[C@@H](CCCNC(=N)N)C(=O)N[C@@H](CCCCN)C(=O)N3)NC(=O)[C@H](CCC(=O)O)NC(=O)[C@H](CC(C)C)NC(=O)CNC(=O)[C@H](CCC(=O)O)NC2=O (Ac-CQKFLEPCDSERKCCEGLECKLWCKKKLW-NH2; disulfide 1-15, 8-20, 14-24), which IC50 [1] is on record?
The IC50 was over 15 µM.

What about the IC50 [2] of the same molecule?
Its IC50 is 0.0188 µM.

And the Activity [3]?
Its Activity is “inactive”.

And the Activity [4]?
Its Activity is “Dose-Dependent Effect”.

And the LED [5]?
Its LED is 30 µM.

And the IC50 [6]?
The IC50 was 0.133 µM.

What about the IC50 [7] of the same molecule?
Its IC50 is over 17 µM.

What about the IC50 [8] of the same molecule?
Its IC50 is over 17 µM.

What about the half-life [9] of the same molecule?
Its half-life is under 3 h.

What about the IC50 [10] of the same molecule?
Its IC50 is over 17 µM.

And the IC50 [11]?
Its IC50 is over 30 µM.

And the “fold change (FC)” value [12]?
The value was 50.

And the EC50 [13]?
The EC50 was 1.62 µM.

What about the IC50 [14] of the same molecule?
The IC50 was over 15 µM.

And the IC50 [15]?
Its IC50 is 0.183 µM.

Which LED [5] does the source give for CC(=O)N[C@H]1CSSC[C@@H]2NC(=O)[C@@H]3CSSC[C@@H](C(=O)N[C@@H](CCCCN)C(=O)N[C@@H](CCCCN)C(=O)N[C@@H](CCCCN)C(=O)N[C@@H](CC(C)C)C(=O)N[C@@H](Cc4c[nH]c5ccccc45)C(N)=O)NC(=O)[C@H](Cc4c[nH]c5ccccc45)NC(=O)[C@H](C4CCCCC4)NC(=O)[C@H](CCCCN)NC(=O)[C@H](CSSC[C@H](NC(=O)[C@@H]4CCCN4C(=O)[C@H](CCC(=O)O)NC(=O)[C@H](CC(F)(F)F)NC(=O)[C@H](Cc4cccc(Cl)c4)NC(=O)[C@H](CCCCN)NC(=O)[C@H](CCC(N)=O)NC1=O)C(=O)N[C@@H](CC(=O)O)C(=O)N[C@@H](CO)C(=O)N[C@@H](CCC(=O)O)C(=O)N[C@@H](CCCNC(=N)N)C(=O)N[C@@H](CCCCN)C(=O)N3)NC(=O)[C@H](CCC(=O)O)NC(=O)[C@H](CC(C)C)NC(=O)CNC(=O)[C@H](CCC(=O)O)NC2=O (Ac-CQK[Phe(3-Cl)][Abu(4,4,4-F3)]EPCDSERKCCEGLECK[Chg]WCKKKLW-NH2; disulfide 1-15, 8-20, 14-24) here?
Its LED is 33 µM.

What about the IC50 [8] of the same molecule?
Its IC50 is over 17 µM.

What about the IC50 [10] of the same molecule?
Its IC50 is over 17 µM.

What about the IC50 [15] of the same molecule?
The IC50 was 0.064 µM.

With CC(=O)N[C@H]1CSSC[C@@H]2NC(=O)[C@@H]3CSSC[C@@H](C(=O)N[C@@H](CCCCN)C(=O)N[C@@H](CCCCN)C(=O)N[C@@H](CCCCN)C(=O)N[C@@H](CC(C)C)C(=O)N[C@@H](Cc4c[nH]c5ccccc45)C(=O)O)NC(=O)[C@H](Cc4c[nH]c5ccccc45)NC(=O)[C@H](C4CCCCC4)NC(=O)[C@H](CCCCN)NC(=O)[C@H](CSSC[C@H](NC(=O)[C@@H]4CCCN4C(=O)[C@H](CCC(=O)O)NC(=O)[C@H](CC(F)(F)F)NC(=O)[C@H](Cc4ccc(Cl)cc4)NC(=O)[C@H](CCCCN)NC(=O)[C@H](CCC(N)=O)NC1=O)C(=O)N[C@@H](CC(=O)O)C(=O)N[C@@H](CO)C(=O)N[C@@H](CCC(=O)O)C(=O)N[C@@H](CCCNC(=N)N)C(=O)N[C@@H](CCCCN)C(=O)N3)NC(=O)[C@H](CCC(=O)O)NC(=O)[C@H](CC(C)C)NC(=O)CNC(=O)[C@H](CCC(=O)O)NC2=O (Ac-CQK[Phe(4-Cl)][Abu(4,4,4-F3)]EPCDSERKCCEGLECK[Chg]WCKKKLW-OH; disulfide 1-15, 8-20, 14-24) as the molecule, how does the LED [5] read?
Its LED is 30 µM.

What about the IC50 [8] of the same molecule?
The IC50 was over 17 µM.

What about the IC50 [10] of the same molecule?
The IC50 was 11.1 µM.

What about the IC50 [15] of the same molecule?
Its IC50 is 0.091 µM.

What does the source list for CC(=O)N[C@H]1CSSC[C@@H]2NC(=O)[C@@H]3CSSC[C@@H](C(=O)N[C@@H](CCCCN)C(=O)N[C@@H](CCCCN)C(=O)N[C@@H](CCCCN)C(=O)N[C@@H](CC(C)C)C(=O)N[C@@H](Cc4c[nH]c5ccccc45)C(N)=O)NC(=O)[C@H](Cc4c[nH]c5ccccc45)NC(=O)[C@H](C4CCCCC4)NC(=O)[C@H](CCCCN)NC(=O)[C@H](CSSC[C@H](NC(=O)[C@@H]4CCCN4C(=O)[C@H](CCC(=O)O)NC(=O)[C@H](CC(F)(F)F)NC(=O)[C@H](Cc4c[nH]c5ccc(Br)cc45)NC(=O)[C@H](CCCCN)NC(=O)[C@H](CCC(N)=O)NC1=O)C(=O)N[C@@H](CC(=O)O)C(=O)N[C@@H](CO)C(=O)N[C@@H](CCC(=O)O)C(=O)N[C@@H](CCCNC(=N)N)C(=O)N[C@@H](CCCCN)C(=O)N3)NC(=O)[C@H](CCC(=O)O)NC(=O)[C@H](CC(C)C)NC(=O)CNC(=O)[C@H](CCC(=O)O)NC2=O (Ac-CQK[Trp(5-Br)][Abu(4,4,4-F3)]EPCDSERKCCEGLECK[Chg]WCKKKLW-NH2; disulfide 1-15, 8-20, 14-24)?
LED [5]: 3.3 µM; IC50 [8]: > 17 µM; IC50 [10]: 2.61 µM; IC50 [15]: 0.03 µM

With CC(C)C[C@@H]1NC(=O)CNC(=O)[C@H](CCC(=O)O)NC(=O)[C@@H]2CSSC[C@H](NC(=O)[C@@H](N)Cc3ccc(O)cc3)C(=O)N[C@@H](CCC(N)=O)C(=O)N[C@@H](CCCCN)C(=O)N[C@@H](Cc3ccccc3)C(=O)N[C@@H](CC(C)C)C(=O)N[C@@H](C)C(=O)N3CCC[C@H]3C(=O)N[C@H]3CSSC[C@H](NC(=O)[C@H](C(C)C)NC1=O)C(=O)N[C@@H](CCCNC(=N)N)C(=O)N[C@@H](CC(C)C)C(=O)N[C@@H](Cc1c[nH]c4ccccc14)C(=O)N[C@H](C(=O)N[C@@H](CCCCN)C(=O)N[C@@H](CCCCN)C(=O)N[C@@H](CCCCN)C(=O)N[C@@H](CC(C)C)C(=O)N[C@@H](Cc1c[nH]c4ccccc14)C(N)=O)CSSC[C@H](NC(=O)[C@H](CCCCN)NC(=O)[C@H](CCCNC(=N)N)NC(=O)[C@H](CCC(=O)O)NC(=O)[C@H](CO)NC(=O)[C@H](CC(=O)O)NC3=O)C(=O)N2 (H-YCQKFLAPCDSERKCCEGLVCRLWCKKKLW-NH2; disulfide 2-16, 9-21, 15-25) as the molecule, how does the IC50 [1] read?
Its IC50 is 0.78 µM.

And the IC50 [2]?
The IC50 was 0.0083 µM.

And the “fold change (FC)” value [16]?
The value was 12.

And the Activity [4]?
The Activity was “Dose-Dependent Effect”.

What about the LED [5] of the same molecule?
Its LED is 3.3 µM.

What about the IC50 [6] of the same molecule?
Its IC50 is 0.0059 µM.

What about the IC50 [7] of the same molecule?
The IC50 was over 17 µM.

What about the IC50 [8] of the same molecule?
Its IC50 is 1.77 µM.

What about the half-life [9] of the same molecule?
Its half-life is under 3 h.

And the IC50 [10]?
Its IC50 is 1.19 µM.

And the IC50 [11]?
Its IC50 is over 30 µM.

And the “fold change (FC)” value [12]?
Its value is 50.

What about the EC50 [13] of the same molecule?
Its EC50 is 0.294 µM.

And the IC50 [14]?
Its IC50 is 2.9 µM.

And the IC50 [15]?
The IC50 was 0.032 µM.
